Earlier results as cited in US20170231974A1, “Combined Use of an Alpha-Adrenergic Receptor Antagonist and an Anti-Muscarinic Agent” (Astellas Ireland Co., Ltd., priority 2008, published 2017).
Where a name gives a salt, the structure may show the parent alone.

Tested on: male patients with lower urinary tract symptoms associated with prostatic hyperplasia
[1] = male patients, at least 1 urgency episode per day and 8 or more micturitions per day

| SMILES | improvement of storage symptom score [1] | improvement of total I-PSS [1] | improvement of voiding score [1] | acute urinary retention (AUR) (added to doxazosin) | effect on urinary flow rate (added to doxazosin) |
| --- | --- | --- | --- | --- | --- |
| COc1cc2nc(N3CCN(C(=O)C4COc5ccccc5O4)CC3)nc(N)c2cc1OC (centres unmarked) [doxazosin] | 2.9 points | 7.3 points | 4.5 points | – | – |
| CCCOC(C(=O)OC1CCN(C)CC1)(c1ccccc1)c1ccccc1 [Propiverine, propiverine hydrochloride] | – | – | – | no acute urinary retention (AUR) was observed | did not affect the urinary flow rate |
